From patent publication US11208446B2, “Agents and methods for treating CBP-dependent cancers” (priority 2016, dated 2021)

Columns and labels:
[1] = test system: primary patient-derived MLL-rearranged leukemia cells; test: Primary patient derived xenograft, survival analysis; type: in vivo, NSG mice; details: 50 mg/kg daily intraperitoneal, days 3-17, log-rank p=0.0038
Experimental: Mouse studies. All mouse experiments were carried out in accordance with institutional animal protocols. Two hundred thousand primary AML MLL-rearranged leukemia cells were suspended in […] of PBS and transplanted via tail vein injection into 8-week-old sublethally irradiation (200 rad) female NOD.Cg-Prkdc(scid)Il2rg(tm1Wjl)/SzJ mice (The Jackson Laboratory, Bar Harbor, Me., USA). Recipient mice were maintained on antibiotic supplementation in chow (0.025% trimethoprim, 0.124% sulfamethoxazole, Sulfatrim). Three days after transplant, mice were randomly assigned to experimental treatment groups. MYBMIM peptide suspended in PBS was administered daily through intraperitoneal injection at a daily dose of 50 mg/kg. Mice were treated from days 3-17 of this study for a total of 14 days and then monitored daily with clinical examination for survival analysis.
Statistical Analysis. For comparisons between two sample sets, statistical analysis of means was performed using 2-tailed, unpaired Student's t-tests. Survival analysis was done using the Kaplan-Meier method, as assessed using a log-rank test. For gene expression analysis, statistical significance was assessed using paired t-tests.

[2] = test system: MOLM13, MV411, ML2, and HL60 cell lines; test: Cell viability, live cell count by Trypan blue exclusion; type: cell-based, human; details: 10 μM and 20 μM every 48 hours for 6 days
Experimental: Cell culture. The human AML lines MV411, MOLM13, ML2, and HL60 were obtained from the American Type Culture Collection (ATCC, Manassas, Va., USA). Umbilical cord blood was obtained from the New York Blood Center. The identity of all cell lines was verified by STR analysis (Genetica DNA Laboratories, Burlington, N.C., USA) and absence of Mycoplasma sp. contamination was determined using Lonza MycoAlert (Lonza Walkersville, Inc., Walkersville, Md., USA). Cell lines were cultured in 5% CO2 in a humidified atmosphere at 37° C. in RPMI medium supplemented with 10% fetal bovine serum (FBS) and antibiotics (100 U/ml penicillin and 100 μg/ml streptomycin). Cell viability analysis. Cells were resuspended and plated at a concentration of 2×10^5 cells in 200 μL in 96-well tissue culture plates. Media with peptides was replaced every 48 hours. To assess the number of viable cells, cells were resuspended in PBS and 10 μL mixed in a 1:1 ratio with 0.4% Trypan Blue (Thermo Fisher) and counted using a hematocytometer (Hausser Scientific, Horsham, Pa., USA). To assess viability using an ATP-based assay, cell viability was assessed using the CellTiter-Glo Luminescent Viability assay, according to the manufacturer's instructions (Promega). Luminescence was recorded using the Infinite M1000Pro plate reader using integration time of 250 milliseconds (Tecan).

MV411 cells = test: Flow cytometric analysis of apoptosis (Annexin-V); type: cell-based, human; details: 20 μM, 24 hours
Experimental: Flow cytometric analysis of Apoptosis. Cells were resuspended to a concentration of 1×10^6 cells were plated in triplicate in a 12-well tissue culture plate. For assessment of annexin V staining, cells were washed with PBS and then resuspended in PBS with Annexin V-APC (BioLegend) and propidium iodide at a dilution of 1:1000. For intracellular detection of cleaved caspase 3, cells were fixed and permeabilized using the BD Cytofix/Cytoperm Fixation/Permeabilization solution according to the manufacturer's instructions (BD Biosciences. Cells were then stained using the Alexa Fluor 647-conjugated anti-active caspase-3 (BD Biosciences) at a dilution of 1:50. Cells were incubated for 30 minutes room temperature in the dark, washed, and then analyzed using the BD LSRFortessa cell analyzer.

MYB:CBP complex = target: T1, MYB:CBP complex (Homo sapiens, UniProt Q92793); test: Dissociation of MYB:CBP complex in AML cells (co-immunoprecipitation); type: cell-based
T1 construct: endogenous in cells; host or cells: MV411 human AML cells
T1 sequence (Q92793 2-2442 limits assumed, one chain of several): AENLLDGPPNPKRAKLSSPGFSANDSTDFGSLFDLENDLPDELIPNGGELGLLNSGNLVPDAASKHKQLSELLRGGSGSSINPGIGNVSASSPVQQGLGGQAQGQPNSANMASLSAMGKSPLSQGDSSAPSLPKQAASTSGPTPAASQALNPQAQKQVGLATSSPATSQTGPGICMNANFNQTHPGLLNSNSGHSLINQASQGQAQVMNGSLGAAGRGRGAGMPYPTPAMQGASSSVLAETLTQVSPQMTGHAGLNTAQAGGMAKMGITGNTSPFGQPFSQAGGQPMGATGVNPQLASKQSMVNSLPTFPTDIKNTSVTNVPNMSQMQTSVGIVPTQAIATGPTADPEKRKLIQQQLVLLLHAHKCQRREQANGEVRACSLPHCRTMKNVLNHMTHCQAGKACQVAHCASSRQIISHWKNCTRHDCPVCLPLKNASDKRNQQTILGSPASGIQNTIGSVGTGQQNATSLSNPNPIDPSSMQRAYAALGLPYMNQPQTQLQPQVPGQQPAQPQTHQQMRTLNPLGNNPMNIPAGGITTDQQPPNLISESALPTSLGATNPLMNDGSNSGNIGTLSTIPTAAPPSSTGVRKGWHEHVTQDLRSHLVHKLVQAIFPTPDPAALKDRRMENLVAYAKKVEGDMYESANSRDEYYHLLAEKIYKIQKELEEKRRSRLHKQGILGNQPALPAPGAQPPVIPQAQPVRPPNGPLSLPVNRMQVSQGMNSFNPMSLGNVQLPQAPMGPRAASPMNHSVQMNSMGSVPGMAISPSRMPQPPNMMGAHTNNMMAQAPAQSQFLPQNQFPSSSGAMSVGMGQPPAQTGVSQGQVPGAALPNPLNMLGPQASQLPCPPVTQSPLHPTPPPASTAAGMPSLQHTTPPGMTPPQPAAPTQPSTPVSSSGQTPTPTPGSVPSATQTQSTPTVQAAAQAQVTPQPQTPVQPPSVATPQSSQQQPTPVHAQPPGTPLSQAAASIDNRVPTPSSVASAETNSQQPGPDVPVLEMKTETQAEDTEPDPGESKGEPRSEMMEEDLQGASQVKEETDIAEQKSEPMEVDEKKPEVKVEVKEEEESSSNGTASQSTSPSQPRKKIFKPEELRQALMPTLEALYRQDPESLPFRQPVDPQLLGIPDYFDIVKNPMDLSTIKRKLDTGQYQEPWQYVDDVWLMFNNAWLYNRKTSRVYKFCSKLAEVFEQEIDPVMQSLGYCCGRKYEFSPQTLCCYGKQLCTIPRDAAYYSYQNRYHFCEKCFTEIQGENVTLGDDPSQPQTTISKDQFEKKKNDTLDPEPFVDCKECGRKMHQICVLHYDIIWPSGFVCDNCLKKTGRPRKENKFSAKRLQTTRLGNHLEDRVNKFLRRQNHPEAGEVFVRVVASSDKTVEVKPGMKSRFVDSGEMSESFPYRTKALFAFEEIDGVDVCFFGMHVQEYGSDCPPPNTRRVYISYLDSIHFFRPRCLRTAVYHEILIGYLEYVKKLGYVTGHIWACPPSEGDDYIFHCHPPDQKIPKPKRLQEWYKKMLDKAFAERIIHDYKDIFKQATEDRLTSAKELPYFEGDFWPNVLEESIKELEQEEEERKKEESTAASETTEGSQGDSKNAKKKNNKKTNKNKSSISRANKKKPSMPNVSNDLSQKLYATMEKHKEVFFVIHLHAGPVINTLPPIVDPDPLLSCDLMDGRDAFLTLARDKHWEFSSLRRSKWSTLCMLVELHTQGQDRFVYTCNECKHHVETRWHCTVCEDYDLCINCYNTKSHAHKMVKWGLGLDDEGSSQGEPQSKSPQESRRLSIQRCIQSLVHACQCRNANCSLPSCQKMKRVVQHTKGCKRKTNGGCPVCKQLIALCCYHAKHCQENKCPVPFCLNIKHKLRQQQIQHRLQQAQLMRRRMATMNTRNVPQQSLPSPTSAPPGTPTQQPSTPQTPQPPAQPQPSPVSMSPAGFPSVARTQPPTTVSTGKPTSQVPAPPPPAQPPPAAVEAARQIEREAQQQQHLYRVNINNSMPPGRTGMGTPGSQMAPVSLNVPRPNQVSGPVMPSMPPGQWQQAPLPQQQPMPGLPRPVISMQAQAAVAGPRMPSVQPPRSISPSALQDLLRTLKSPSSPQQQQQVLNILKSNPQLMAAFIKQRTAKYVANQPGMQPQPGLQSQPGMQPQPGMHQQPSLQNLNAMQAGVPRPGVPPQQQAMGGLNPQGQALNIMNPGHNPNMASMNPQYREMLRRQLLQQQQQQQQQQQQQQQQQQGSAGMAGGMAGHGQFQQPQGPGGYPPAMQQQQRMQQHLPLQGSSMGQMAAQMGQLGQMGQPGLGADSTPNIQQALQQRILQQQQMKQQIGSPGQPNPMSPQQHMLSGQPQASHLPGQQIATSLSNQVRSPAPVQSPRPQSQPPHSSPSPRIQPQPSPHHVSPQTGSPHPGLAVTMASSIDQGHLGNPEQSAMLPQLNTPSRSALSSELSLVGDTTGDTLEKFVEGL
Experimental: Co-immunoprecipitation analysis. 7.5 μg of indicated antibodies were conjugated to 1 mg M-270 Epoxy-coated magnetic beads (Invitrogen) according to manufacturer's instructions. 1×10^7 MV411 cells were collected and washed in cold PBS. Washed cell pellets were resuspended in 350 μL cold lysis buffer (50 mM Tris-HCl pH 7.4, 150 mM NaCl, 1 mM EDTA, 1 mM DTT, 0.5% Triton X-100, supplemented with protease inhibitors described above) and incubated on ice for 10 min. Cells were mechanically disrupted using the Covaris […] adaptive focused sonicator at 50 W peak power, 10% duty cycle, 200 cycles per burst at 4° C. for 300 sec. Lysate was clarified by centrifugation for 15 min at 18,000×g at 4° C. Supernatant (cleared lysate) was diluted in 1.05 mL dilution buffer (50 mM Tris-HCl, 150 mM NaCl, 1 mM EDTA, 1 mM DTT, 10% glycerol, supplemented with protease inhibitors described above for a total volume of 1.4 mL. Diluted lysate was added to 1 mg beads, and immunoprecipitation proceeded for 3 h at 4° C. with rotation. Beads were then washed with lysis buffer twice. Proteins were eluted in 20 μL EB buffer (Invitrogen) for 5 min at room temperature, and eluate was neutralized with 2 μL 1M Tris pH 11. Samples were prepared for Western blot by addition of Laemmli buffer with 50 mM DTT and incubation at 95° C. for 5 min. Presence of MYB and CBP was identified by Western blot as described above.

## CC[C@@H](C)[C@@H](NC(=O)[C@@H](CCCCN)NC(=O)[C@@H](CCC(=O)O)NC(=O)[C@@H](CC(C)C)NC(=O)[C@@H](CCC(=O)O)NC(=O)[C@@H](CC(C)C)NC(=O)[C@@H](CC(C)C)NC(=O)[C@@H](CC(C)C)NC(=O)[C@@H](CCSC)NC(=O)[C@@H](CO)NC(=O)[C@H](NC(=O)[C@@H](CCC(=O)O)NC(=O)[C@@H](CC(N)=O)NC(=O)[C@@H](CCC(=O)O)NC(=O)[C@@H](CC(C)C)NC(=O)[C@@H](CCCCN)NC(C)=O)[C@H](C)O)C(=O)N[C@H](CCCNC(=N)N)C(=O)N[C@H](CCCCN)C(=O)NCC(=O)NCC(=O)N[C@H](CCCNC(=N)N)C(=O)N[C@H](CCCNC(=N)N)C(=O)N[C@H](CCCNC(=N)N)C(=O)N[C@H](CCC(N)=O)C(=O)N[C@H](CCCNC(=N)N)C(=O)N[C@H](CCCNC(=N)N)C(=O)N[C@H](CCCCN)C(=O)N[C@H](CCCCN)C(=O)N[C@H](CCCNC(=N)N)C(=O)NCC(=O)N[C@H](Cc1ccc(O)cc1)C(N)=O [MYBMIM]
[1]
  survival of mice (Kaplan-Meier): prolongs survival
[1]; listed as SEQ ID NO:1
  survival of mice (Kaplan-Meier): impeded leukemia progression and extended survival
[2]
  AML cell death (live cells on Day 6): induction of AML cell death
MV411 cells
  apoptosis (Annexin-V staining): induction of apoptosis
MYB:CBP complex
  MYB:CBP complex in cells: displacement and dissociation of MYB:CBP complex
